Results taken from the OPERA property sets (Mansouri et al. 2018).

`CN(C)C=Nc1ccn(C2OC(CO)C(O)C2O)c(=O)n1` (stereo unspecified) showed a logP of -1.68. `O=[N+]([O-])c1ncn[nH]1` showed a logP of -0.33. `CC(C)(C)C(=O)OCn1cc2c(=O)[nH]cnc2n1` gave a logP of 0.79. With `CCCNC(=O)c1ccccc1` the logP was 1.72. `CC1CC(C(=O)O)=C(C(=O)O)C(C)C1` (stereo unspecified) showed a logP of 1.53. Compound `CCCCCCOC(=O)n1cc(F)c(=O)[nH]c1=O` has a logP of 2.04. With `CS(=O)(=O)ON1C(=O)c2ccc(N)cc2C1=O` the logP was 0.8. For `CC1(C)COC(Cn2cncn2)(c2ccc(-n3ccnc3)cc2Cl)OC1`, the logP was 2.26. `CCN(CC)C(=O)OCCCc1cccnc1` gave a logP of 2.36. `CC1=C(C(=O)O)N2C(=O)C(NC(=O)C(OC(=O)C(C)C)c3ccccc3)C2SC1` (stereo unspecified) showed a logP of 2.05. In the case of `CC1CC2C3CCC4=CC(=O)C=CC4(C)C3(F)C(O)CC2(C)C1(O)C(=O)NCCO` (stereo unspecified), the logP is reported as 1.51. For `Clc1cccc(-c2c(Cl)cc(Cl)c(Cl)c2Cl)c1Cl`, the logP was 7.25. `CCCCCNC(=O)C1(O)C(C)CC2C3CCC4=CC(=O)C=CC4(C)C3(F)C(O)CC21C` (stereo unspecified) showed a logP of 3.64. In the case of `CCN(CC)C(=O)COC(=O)c1ccccc1O`, the logP is reported as 1.99. `O=c1[nH]c2ccccc2n1C1CCN(CC(O)C2COc3ccccc3O2)CC1` (stereo unspecified) showed a logP of 3.43. Compound `CCCN1C(=O)NC(=O)C(=O)C1=O` has a logP of 0.28. `O=C1CC(Sc2ccncc2)N1` (stereo unspecified) gave a logP of 0.61. In the case of `CCOc1ccc(C(=O)O)cc1OCC`, the logP is reported as 2.37. Compound `Clc1cccc(-c2c(Cl)c(Cl)c(Cl)c(Cl)c2Cl)c1` has a logP of 7.3. `CCOc1ccc(C2(C(=O)OC)CC2(Cl)Cl)cc1` (stereo unspecified) showed a logP of 4.1. For `O=C(O)C(OCc1ccccc1)c1ccccc1` (stereo unspecified), the logP was 2. Work on `CC(C)C(=O)Nc1cc(C(F)(F)F)ccc1S(N)(=O)=O` yielded a logP of 2.45. For `CCOc1ccccc1NC(=O)OCCN1CCOCC1`, the logP was 2.27. `CCOc1ccc(C2(C(=O)OC)CC(F)(F)C2(F)F)cc1` (stereo unspecified) showed a logP of 4.06. With `CCN(CC)Cc1ccc(C(=O)Nc2ccccc2C)cc1` the logP was 3.31. Compound `Cc1c(Cl)cccc1Cl` has a logP of 3.99. `COCc1ccc(O)c2ncccc12` gave a logP of 1.78. `O=c1nc(N=CN2CCOCC2)ccn1C1CC(O)C(CO)O1` (stereo unspecified) gave a logP of -1.54. With `CC(C)(C)c1ccc2c(c1)OCCOCCOCCOCCO2` the logP was 2.26. Work on `Cc1cccc(C)c1NC(=O)c1cccc(CN2CCCCC2)c1` yielded a logP of 3.47. `COCC(Cn1ccnc1[N+](=O)[O-])OC` (stereo unspecified) gave a logP of 0.06. For `Clc1cccc(-c2cc(Cl)c(Cl)c(Cl)c2Cl)c1Cl`, the logP was 7.32. With `CNc1nc(Cl)c(SC)c(N2CCN(C)CC2)n1` the logP was 2.99. `CN(C)c1nc(=O)n(C2CCCCC2)c(=O)n1C` gave a logP of 1.85. `O=c1[nH]c(Nc2ccccc2)nc2c1ncn2CC(O)CO` (stereo unspecified) showed a logP of 0.4. With `Cc1nccc2c1[nH]c1ccccc12` the logP was 3.1. Compound `CC(C)(C)C(=O)C(C#N)=NNc1ccc(Cl)cc1C(F)(F)F` has a logP of 5.67. Work on `O=c1cccccc1` yielded a logP of 0.26. With `CCN(CC)S(=O)(=O)N(CC)C1C=C2c3cccc4[nH]cc(c34)CC2N(C)C1` (stereo unspecified) the logP was 3.09. Compound `CCC(C)NC(=O)C=C(N)c1ccc(Cl)cc1` (stereo unspecified) has a logP of 2.94. Work on `CCN1CC(C(O)C(CC2CCCCC2)NC(=O)C(Cc2c[nH]cn2)NC(=O)C(Cc2ccc(OC)cc2)NC(=O)N(C)CCOCOC)OC1=O` (stereo unspecified) yielded a logP of 2.3. Work on `CCN1CCN(C(=O)N[C@@H](C(=O)N[C@@H]2C(=O)N3[C@@H]2SC(C)(C)[C@@H]3C(=O)O)c2ccccc2)C(=O)C1=O` yielded a logP of 0.5. Compound `C=C1CCC2C(C1)c1c(OC)cc(CCC)cc1OC2(C)C` (stereo unspecified) has a logP of 6.26. With `CCCCN1C(=O)C(=O)c2ccccc2C1=O` the logP was 2.18. `CCNc1nc(SC)nc(C(Cl)(Cl)Cl)n1` showed a logP of 3.87. In the case of `Cc1cc(Cl)c(Cl)cc1Cl`, the logP is reported as 4.56. With `O=c1cc2ccccc2n[nH]1` the logP was 0.68. In the case of `S=C=NCCCCCc1ccccc1`, the logP is reported as 4.4. Work on `CC(C)NCC(O)COCCCc1ccccc1` (stereo unspecified) yielded a logP of 1.94. For `O=C(Cn1ccnc1[N+](=O)[O-])NCCCO`, the logP was -1.27. In the case of `CC(C)NCC(COc1cccc2ccccc12)OS(=O)(=O)O` (stereo unspecified), the logP is reported as 1.16. With `Nc1c2ncn(C3OC(CO)CC3F)c2nc[n+]1[O-]` (stereo unspecified) the logP was -1.38. `CNC(=O)C(Cc1ccc(O)cc1)NC(C)=O` (stereo unspecified) gave a logP of -0.32. In the case of `CC(=O)OC1C(=O)C2(C)C(O)CC3OCC3(OC(C)=O)C2C(OC(=O)c2ccccc2)C2(O)CC(OC(=O)C(O)Cc3ccccc3)C(C)=C1C2(C)C` (stereo unspecified), the logP is reported as 2.9. `O=C(O)CCc1cc(=O)c2cc3c(cc2o1)CCCC3` showed a logP of 2.85. `CCNc1nc(NC)nc(SC(F)F)n1` gave a logP of 2.68. `CCC(=O)OC(C(=O)NC1C(=O)N2C(C(=O)O)=C(C)CSC12)c1ccccc1` (stereo unspecified) gave a logP of 1.47. Work on `O=[N+]([O-])C=C1NCCN1Cc1ccccc1` yielded a logP of 0.33. `CC(=O)OC(C(=O)NC1C(=O)N2C(C(=O)O)=C(C)CSC12)c1ccccc1` (stereo unspecified) showed a logP of 1.02. With `CCCCOc1ccc(OCC(OC(=O)n2ccnc2)C(C)(C)C)cc1` (stereo unspecified) the logP was 4.29. `Nc1ccccc1S(N)(=O)=O` gave a logP of 0.22. For `Cc1ccc(OCc2ccccc2CCCN2CCC(O)CC2)cc1`, the logP was 3.5. For `Cc1nc([N+](=O)[O-])c(Cl)n1C`, the logP was 0.34. `CC(C)N1C(=O)C(=O)c2ccccc2C1=O` showed a logP of 1.6. `COC(=O)c1ccc(OCC(OC(=O)n2ccnc2)C(C)(C)C)cc1` (stereo unspecified) showed a logP of 3.59. `COc1ccccc1NC(=O)OCCN1CCOCC1` gave a logP of 1.73. With `C#CCOc1c(Cl)cc(NC=NOCc2ccccc2)cc1Cl` the logP was 4.2. With `C#CCOc1c(Cl)cc(NC=NOc2ccccc2)cc1Cl` the logP was 4.4. With `CCN1C(=O)C(=O)c2c(C#N)cccc2C1=O` the logP was 0.41. In the case of `Clc1cc(-c2cc(Cl)c(Cl)c(Cl)c2Cl)c(Cl)c(Cl)c1Cl`, the logP is reported as 8.68. With `CN(C)N=Nc1ccc(C(F)(F)F)cc1` the logP was 4.
